Laboratory results from the NIST ThermoML archive (doi:10.1016/j.jct.2011.04.018).
± gives the expanded uncertainty stated by the source.

Test: activity coefficient (dimensionless); of the first substance listed, at infinite dilution; xn = mol fraction of the nth substance listed
Conditions: 101 kPa, Liquid, Chromatography, x1 = 0

| Structure (SMILES) | activity coefficient (308.15 K) | activity coefficient (318.15 K) | activity coefficient (328.15 K) | activity coefficient (338.15 K) | activity coefficient (348.15 K) | activity coefficient (358.15 K) | activity coefficient (368.15 K) | activity coefficient (378.15 K) |
| --- | --- | --- | --- | --- | --- | --- | --- | --- |
| C1CCCCCCC1 [cyclooctane] + O=S(=O)([N-]S(=O)(=O)C(F)(F)F)C(F)(F)F.OCCC[n+]1ccccc1 | 51.9 ± 3.6 | 46.4 ± 3.2 | 41.6 ± 2.8 | 37.3 ± 2.6 | 34 ± 2.3 | 31.3 ± 2.1 | 28.6 ± 2 |  |
| C1CCCC1 [cyclopentane] + O=S(=O)([N-]S(=O)(=O)C(F)(F)F)C(F)(F)F.OCCC[n+]1ccccc1 | 15.8 ± 1.1 | 14.6 ± 1 | 13.5 ± 0.9 | 12.5 ± 0.9 | 11.7 ± 0.8 | 11.1 ± 0.8 | 10.4 ± 0.7 |  |
| CCCCCCCCCC [decane] + O=S(=O)([N-]S(=O)(=O)C(F)(F)F)C(F)(F)F.OCCC[n+]1ccccc1 | 327 ± 22 | 284 ± 20 | 245 ± 17 | 214 ± 15 | 190 ± 13 | 168 ± 12 | 150 ± 10 |  |
| CCOCC [diethyl ether] + O=S(=O)([N-]S(=O)(=O)C(F)(F)F)C(F)(F)F.OCCC[n+]1ccccc1 | 2.71 ± 0.18 | 2.77 ± 0.19 | 2.82 ± 0.19 | 2.87 ± 0.2 | 2.91 ± 0.2 | 2.97 ± 0.2 | 3.01 ± 0.2 |  |
| CCCOCCC [dipropyl ether] + O=S(=O)([N-]S(=O)(=O)C(F)(F)F)C(F)(F)F.OCCC[n+]1ccccc1 | 9.62 ± 0.66 | 9.45 ± 0.64 | 9.28 ± 0.63 | 9.12 ± 0.62 | 8.99 ± 0.61 | 8.87 ± 0.61 | 8.75 ± 0.6 |  |
| CCO [ethanol] + O=S(=O)([N-]S(=O)(=O)C(F)(F)F)C(F)(F)F.OCCC[n+]1ccccc1 |  | 1.16 ± 0.07 | 1.11 ± 0.07 | 1.06 ± 0.07 | 1.02 ± 0.06 | 0.984 ± 0.062 | 0.949 ± 0.06 | 0.919 ± 0.058 |
| CCc1ccccc1 [ethylbenzene] + O=S(=O)([N-]S(=O)(=O)C(F)(F)F)C(F)(F)F.OCCC[n+]1ccccc1 |  | 3.96 ± 0.27 | 3.93 ± 0.27 | 3.9 ± 0.27 | 3.87 ± 0.26 | 3.84 ± 0.26 | 3.82 ± 0.26 | 3.79 ± 0.26 |
| CCCCCCC [heptane] + O=S(=O)([N-]S(=O)(=O)C(F)(F)F)C(F)(F)F.OCCC[n+]1ccccc1 | 82 ± 5.6 | 73.8 ± 5.1 | 66.2 ± 4.5 | 59.3 ± 4.1 | 54.3 ± 3.7 | 49.4 ± 3.4 | 45.8 ± 3.1 |  |
| C=CCCCC [hex-1-ene] + O=S(=O)([N-]S(=O)(=O)C(F)(F)F)C(F)(F)F.OCCC[n+]1ccccc1 | 22.7 ± 1.6 | 21.2 ± 1.4 | 19.7 ± 1.3 | 18.4 ± 1.3 | 17.3 ± 1.2 | 16.4 ± 1.1 |  |  |
| CCCCCC [hexane] + O=S(=O)([N-]S(=O)(=O)C(F)(F)F)C(F)(F)F.OCCC[n+]1ccccc1 | 51.3 ± 3.5 | 46.7 ± 3.2 | 42.3 ± 2.9 | 38.5 ± 2.6 | 35.6 ± 2.4 | 32.8 ± 2.2 |  |  |
| CO [methanol] + O=S(=O)([N-]S(=O)(=O)C(F)(F)F)C(F)(F)F.OCCC[n+]1ccccc1 |  | 0.87 ± 0.056 | 0.836 ± 0.054 | 0.804 ± 0.052 | 0.776 ± 0.051 | 0.749 ± 0.049 | 0.725 ± 0.048 | 0.703 ± 0.047 |
| CC1CCCCC1 [methylcyclohexane] + O=S(=O)([N-]S(=O)(=O)C(F)(F)F)C(F)(F)F.OCCC[n+]1ccccc1 | 38.7 ± 2.6 | 35.2 ± 2.4 | 31.9 ± 2.2 | 29 ± 2 | 26.8 ± 1.8 | 24.7 ± 1.7 | 22.9 ± 1.6 |  |
| CCCCCCCCC [nonane] + O=S(=O)([N-]S(=O)(=O)C(F)(F)F)C(F)(F)F.OCCC[n+]1ccccc1 | 206 ± 14 | 181 ± 12 | 157 ± 11 | 139 ± 10 | 125 ± 9 | 111 ± 8 | 99.7 ± 6.8 |  |
| C=CCCCCCC [oct-1-ene] + O=S(=O)([N-]S(=O)(=O)C(F)(F)F)C(F)(F)F.OCCC[n+]1ccccc1 | 58 ± 4 | 53 ± 3.6 | 48.5 ± 3.3 | 44.4 ± 3 | 41.1 ± 2.8 | 38.1 ± 2.6 | 35.6 ± 2.4 |  |
| CCCCCCCC [octane] + O=S(=O)([N-]S(=O)(=O)C(F)(F)F)C(F)(F)F.OCCC[n+]1ccccc1 | 130 ± 9 | 116 ± 8 | 102 ± 7 | 91.1 ± 6.2 | 81.3 ± 5.6 | 73.6 ± 5 | 67.5 ± 4.6 |  |
| CCCC(C)=O [pentan-2-one] + O=S(=O)([N-]S(=O)(=O)C(F)(F)F)C(F)(F)F.OCCC[n+]1ccccc1 |  | 0.885 ± 0.056 | 0.91 ± 0.058 | 0.937 ± 0.059 | 0.96 ± 0.06 | 0.984 ± 0.062 | 1.01 ± 0.06 | 1.03 ± 0.06 |
| CCC(=O)CC [pentan-3-one] + O=S(=O)([N-]S(=O)(=O)C(F)(F)F)C(F)(F)F.OCCC[n+]1ccccc1 |  | 0.936 ± 0.059 | 0.963 ± 0.061 | 0.991 ± 0.062 | 1.02 ± 0.06 | 1.04 ± 0.07 | 1.07 ± 0.07 | 1.09 ± 0.07 |
| CCCCC [pentane] + O=S(=O)([N-]S(=O)(=O)C(F)(F)F)C(F)(F)F.OCCC[n+]1ccccc1 | 32.9 ± 2.3 | 30.2 ± 2.1 | 27.9 ± 1.9 | 25.8 ± 1.8 | 24.3 ± 1.7 |  |  |  |
| CCCO [propan-1-ol] + O=S(=O)([N-]S(=O)(=O)C(F)(F)F)C(F)(F)F.OCCC[n+]1ccccc1 |  | 1.6 ± 0.11 | 1.52 ± 0.1 | 1.46 ± 0.1 | 1.39 ± 0.09 | 1.34 ± 0.09 | 1.28 ± 0.08 | 1.24 ± 0.08 |
| C1CCOC1 [tetrahydrofuran] + O=S(=O)([N-]S(=O)(=O)C(F)(F)F)C(F)(F)F.OCCC[n+]1ccccc1 |  | 0.695 ± 0.047 | 0.727 ± 0.048 | 0.757 ± 0.05 | 0.784 ± 0.051 | 0.812 ± 0.053 | 0.839 ± 0.054 | 0.866 ± 0.055 |
| c1ccsc1 [thiophene] + O=S(=O)([N-]S(=O)(=O)C(F)(F)F)C(F)(F)F.OCCC[n+]1ccccc1 |  | 1.27 ± 0.08 | 1.28 ± 0.08 | 1.29 ± 0.08 | 1.29 ± 0.08 | 1.3 ± 0.08 | 1.31 ± 0.09 | 1.31 ± 0.09 |
| Cc1ccccc1 [toluene] + O=S(=O)([N-]S(=O)(=O)C(F)(F)F)C(F)(F)F.OCCC[n+]1ccccc1 |  | 2.36 ± 0.16 | 2.37 ± 0.16 | 2.38 ± 0.16 | 2.39 ± 0.16 | 2.4 ± 0.16 | 2.41 ± 0.16 | 2.42 ± 0.16 |
| O [water] + O=S(=O)([N-]S(=O)(=O)C(F)(F)F)C(F)(F)F.OCCC[n+]1ccccc1 |  | 1.53 ± 0.1 | 1.42 ± 0.09 | 1.33 ± 0.09 | 1.24 ± 0.08 | 1.17 ± 0.07 | 1.1 ± 0.07 | 1.03 ± 0.06 |
